Assay results as given in paper PMC12781162, “Human Protein Z as the Second Known Heme‐Binding Protein from the Endogenous Blood Coagulation Inhibitor System” (Chembiochem, 2025).
Like-named read-outs stand apart in the source and are kept apart here.

Key:
Human protein Z (PZ) = biological target: T1, Human protein Z (PZ) (Homo sapiens, UniProt P22891); experiment: SPR binding of porphyrins to immobilized PZ (single-cycle kinetics); details: for Kd: heterogenous ligand model
T1 construct: purchased CellSystems GmbH HCPZ-0220
T1 sequence (P22891 41-400): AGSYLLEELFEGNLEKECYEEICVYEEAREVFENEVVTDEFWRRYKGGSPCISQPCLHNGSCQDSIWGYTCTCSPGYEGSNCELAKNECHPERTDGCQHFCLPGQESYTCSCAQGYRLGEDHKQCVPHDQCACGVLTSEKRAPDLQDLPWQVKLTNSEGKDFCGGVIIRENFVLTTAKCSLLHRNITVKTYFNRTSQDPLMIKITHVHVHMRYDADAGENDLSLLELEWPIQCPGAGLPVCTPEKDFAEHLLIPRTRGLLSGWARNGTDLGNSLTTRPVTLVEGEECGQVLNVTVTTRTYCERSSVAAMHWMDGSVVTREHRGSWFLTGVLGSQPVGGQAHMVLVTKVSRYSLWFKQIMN
Experimental: SPR experiments were conducted on a Biacore 8K instrument (Cytiva) to investigate the interaction of PZ with heme, as established before.^[ [19] ^, [35] ^, [37] ^, [43] ^] In brief, PZ (10 µg mL^−1) was dissolved in 10 mM sodium acetate buffer (pH 3.5) and immobilized onto a CM5 sensor chip via standard amine coupling, resulting in a final immobilization level of 767 RU. Heme (stock solution in 30 mM NaOH) was further diluted in running buffer (10 mM HEPES, 150 mM NaCl, and 0.05% Tween 20, pH 7.4). The same was performed with zinc (II) protoporphyrin IX and protoporphyrin IX (Frontier Scientific). Binding kinetics were assessed by injecting seven increasing concentrations of heme (187.5–12,000 nM) in a single‐cycle kinetics format at 25 °C and a flow rate of 30 µL min^−1. Data analysis was performed by global fitting using Biacore Insight Evaluation Software, version 3.0.12.15655 (Cytiva).

PZ = biological target: T2, PZ (Homo sapiens, UniProt P22891); experiment: Thrombin-inhibiting activity of PZ in the presence of heme (chromogenic assay); assay type: biochemical; details: PZ 10 nM, thrombin 30 nM, 30 min preincubation of PZ with heme; read-out: EC50 (increase of inhibitory activity of PZ against thrombin by heme)
T2 construct: purchased CellSystems GmbH HCPZ-0220 (PZ); HCXA-0060 (FXa)
T2 sequence (P22891 41-400): as above
Experimental: Herein, an earlier established chromogenic thrombin amidolytic activity assay system was thus used, inspired by Hogg and Stenflo.^[ [19] ^, [28] ^] PZ (final concentration: 10 nM) was first incubated for 30 min with different heme concentrations (final concentrations: 1–1000 nM). […] Finally, 5 µL of the substrate solution (H‐D‐Phe‐Pip‐Arg‐pNA x 2 HCl (S‐2238); final concentration: 273 µM) was added. Immediately, kinetic measurements at 405 nm were started, using an Infinite 200 Pro spectrophotometer. Heme only, thrombin only, and PZ‐heme only served as controls. For evaluation, the thrombin activity was determined as the change of absorbance per second and always normalized against the basal thrombin activity without PZ. Data were analyzed as the mean of triplicate and the IC50 was calculated by nonlinear regression (GraphPad Prism, version 10.5.0).

[1] = biological target: activated protein C (APC); design: method as in PMID 32705892; details: read-out: K D (heme binding to APC); cited from earlier work

- k a1 (association rate) (Human protein Z (PZ); first binding event): 47300 M⁻¹ s⁻¹
- k d1 (dissociation rate) (Human protein Z (PZ); first binding event): 0.00583 s⁻¹
- Kd (Human protein Z (PZ); heme 187.5 nM–12 µM, 25 °C, read-out: K D1 (heme-binding affinity for PZ)): 123 nM
- Kd (Human protein Z (PZ); read-out: K D2 (second binding event, likely unspecific)): 8570 nM
- k a2 (association rate) (Human protein Z (PZ); second binding event): 845 M⁻¹ s⁻¹
- k d2 (dissociation rate) (Human protein Z (PZ); second binding event): 0.00724 s⁻¹
- EC50 (PZ): 12.7 ± 6.36 nM
Substance: Hemin [heme]
- Kd [1]: ~400 nM
